The test system of one series is melanoma. As to conditions: single agent; cited from earlier work.
A further series relates to Tumor Hsp90. The following applies: cited from earlier work.
The next series deals with Hsp70. Description: Western blot of PBMC lysates: Hsp70 levels. The format is in vivo, human.
A short description of another series: clinical. The format is in vivo, human.
The subject of a further series is kidney cancer. The following applies: no prior VEGF inhibitor therapy, single agent; cited from earlier work.
The next series concerns Hsp90. Description: Western blot of PBMC lysates: Hsp90 levels. The following applies: after tanespimycin therapy (on sorafenib). The format is in vivo, human. In general terms: Immunoblotting shows a protein as a band on a membrane.

SMILES strings stand for the structures.

Broadly, the half-life is how long it takes for the measured level to halve. Take `C=CCNC1=C2C[C@@H](C)C[C@H](OC)[C@H](O)[C@@H](C)/C=C(\C)[C@H](OC(N)=O)[C@@H](OC)/C=C\C=C(/C)C(=O)NC(=CC1=O)C2=O` [tanespimycin, 17-demethoxy-allylaminogeldanamycin]: the “response in phase II trial” value in the series on melanoma is reported as “no objective responses or disease stabilization”; in the series with kidney cancer, “no objective responses”. The “higher binding affinity of tumor Hsp90 (multi-chaperone complexes)” value in the series with Tumor Hsp90 is on record as 100 fold. For the same compound, the “patients with increase in Hsp70 level among those showing clinical benefit” value with Hsp70 (after tanespimycin therapy) is 8 of the 10. Also, the “samples with Hsp70 induction” value with Hsp70 (after treatment with tanespimycin (on sorafenib)) is 11 of 14. Besides, the “Cmax on days 1 and 15 compared” value in the series “clinical” (concurrent sorafenib) is “similar”. The same compound gave a half-life in “clinical” (human, plasma, iv) of 216 min. Besides, the “Cmax (end of infusion) and AUC versus tanespimycin dose” value in “clinical” (intravenous infusion 300-450 mg/m^2) is recorded as “increased with increasing tanespimycin dose”. Besides, the “clearance (Mean ± SD)” value in the series “clinical” (intravenous infusion, range 4.8 to 32.9 L/h/m^2) came to 15.0 ± 7.9 L/h/m^2. The “patient samples with decrease in Hsp90 levels” value in the series on Hsp90 is 6 of the 14.

Source of the values: PMC2909581 (Clinical cancer research : an official journal of the …, 2010).
